According to patent US20260085062A1, “NOVEL COMPOUNDS AS CK2 INHIBITORS” (Cambridge Enterprise Limited, priority 2022, published 2026):

Assays:
CK2α = molecular target: T1, CK2α (Homo sapiens, UniProt P68400); assay: Biochemical assay for inhibitors of CK2α kinase activity (ADP-Glo); conditions: 0.2 nM CK2α, 50 μM peptide substrate, 15 μM ATP, read-out: Assay 1: CK2α Enzyme IC50
T1 construct: CK2α (residues 2-329) was produced in Escherichia coli BL21 (DE3) for kinase activity screening; His6 (N, cleaved yes); made in house; host or cells: Escherichia coli BL21 (DE3)
T1 sequence (P68400 2-329): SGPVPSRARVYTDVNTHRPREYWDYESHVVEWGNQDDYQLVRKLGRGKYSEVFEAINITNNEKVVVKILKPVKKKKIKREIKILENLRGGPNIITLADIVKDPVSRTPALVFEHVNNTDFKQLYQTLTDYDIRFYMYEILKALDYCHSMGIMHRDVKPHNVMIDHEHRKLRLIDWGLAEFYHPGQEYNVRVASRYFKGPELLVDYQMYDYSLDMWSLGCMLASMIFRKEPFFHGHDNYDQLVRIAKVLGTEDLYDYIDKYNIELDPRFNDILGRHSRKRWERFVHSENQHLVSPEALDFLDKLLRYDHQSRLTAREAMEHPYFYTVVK

CLK2 = molecular target: T2, CLK2 (Homo sapiens, UniProt P49760); assay: Biochemical assay for inhibitors of CLK2 kinase activity (ADP-Glo); conditions: 20 nM CLK2, 50 μM peptide substrate, 100 μM ATP, read-out: Assay 2: CLK2 Enzyme IC50
T2 construct: purchased Carna Biosciences 04-127
T2 sequence (P49760 whole entry): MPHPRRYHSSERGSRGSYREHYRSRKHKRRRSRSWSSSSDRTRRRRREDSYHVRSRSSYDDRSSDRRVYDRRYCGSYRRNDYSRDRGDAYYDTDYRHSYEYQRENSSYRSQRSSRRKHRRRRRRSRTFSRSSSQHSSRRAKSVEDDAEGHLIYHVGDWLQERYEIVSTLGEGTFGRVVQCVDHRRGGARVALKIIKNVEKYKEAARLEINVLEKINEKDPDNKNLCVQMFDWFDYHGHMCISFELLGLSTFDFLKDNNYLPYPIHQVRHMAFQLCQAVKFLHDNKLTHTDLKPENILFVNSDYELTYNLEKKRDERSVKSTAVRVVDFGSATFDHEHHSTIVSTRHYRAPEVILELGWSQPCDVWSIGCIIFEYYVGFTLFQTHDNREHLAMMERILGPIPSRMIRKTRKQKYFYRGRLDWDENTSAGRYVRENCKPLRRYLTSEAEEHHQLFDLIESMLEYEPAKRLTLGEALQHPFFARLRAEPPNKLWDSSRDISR

intracellular CK2α = molecular target: T3, intracellular CK2α (Homo sapiens, UniProt P19784); assay: Cell-based NanoBRET assay for inhibitor binding to intracellular CK2α; conditions: HCT116 cells transiently transfected with CSNK2A2-NanoLuc fusion vector; Tracer K-5; 2 h; read-out: Assay 3: NanoBRET ™ assay for binding to intracellular CK2α
T3 construct: host or cells: HCT116 (ATCC CCL-247)
T3 sequence (P19784 whole entry, the tested form may be a part): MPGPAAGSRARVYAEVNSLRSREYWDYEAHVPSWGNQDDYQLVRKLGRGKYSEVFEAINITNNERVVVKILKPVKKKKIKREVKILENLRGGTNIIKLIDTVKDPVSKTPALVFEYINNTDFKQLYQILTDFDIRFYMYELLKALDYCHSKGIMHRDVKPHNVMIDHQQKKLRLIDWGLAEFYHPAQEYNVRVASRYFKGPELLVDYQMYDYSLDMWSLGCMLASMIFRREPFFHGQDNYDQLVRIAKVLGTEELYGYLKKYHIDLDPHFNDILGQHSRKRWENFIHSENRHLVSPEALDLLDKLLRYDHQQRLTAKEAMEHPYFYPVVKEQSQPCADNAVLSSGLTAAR
Summary of the method: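 Living cells expressing NanoLuc-CK2α fusion were given a fixed tracer concentration, and compounds competitively displaced the reversibly bound tracer. Donor (450 nm) and acceptor (610 or 630 nm) emissions were read; BRET ratio = (acceptor/donor)×1,000, giving apparent intracellular affinity.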

FC(F)(F)Oc1ccc(CNCCCCOCCNc2cc(-n3cnnc3)cc3[nH]nnc23)cc1Cl [Example 126, N-(2-(4-((3-chloro-4-(trifluoromethoxy)benzyl)amino)butoxy)ethyl)-6-(4H-1,2,4-triazol-4-yl)-1H-benzo[d][1,2,3]triazol-4-amine]
IC50 (CK2α): 11.1 nM
IC50 (CLK2): 18100 nM
IC50 (intracellular CK2α): 3630 nM

N#Cc1cc(NCCOCCCCNCc2cc3cc(C(F)(F)F)ccc3[nH]2)c2cn[nH]c2c1 [Example 96, 4-((2-(4-(((5-(trifluoromethyl)-1H-indol-2-yl)methyl)amino)butoxy)ethyl)amino)-1H-indazole-6-carbonitrile]
IC50 (CK2α): 27 nM
IC50 (CLK2): 227 nM
IC50 (intracellular CK2α): 2000 nM

OCc1cc(Cl)cc(CNCCCCOC2CN(c3cc(-c4ccnnc4)cc4[nH]ncc34)C2)c1 [Example 111, (3-chloro-5-(((4-((1-(6-(pyridazin-4-yl)-1H-indazol-4-yl)azetidin-3-yl)oxy)butyl)amino)methyl)phenyl)methanol]
IC50 (CK2α): 228 nM
IC50 (CLK2): 2300 nM
IC50 (intracellular CK2α): 14200 nM

O=C(CCNCc1ccc(OC(F)(F)F)c(Cl)c1)NCCCNc1cc(-c2cnco2)cc2[nH]ncc12 [Example 164, 3-((3-chloro-4-(trifluoromethoxy)benzyl)amino)-N-(3-((6-(oxazol-5-yl)-1H-indazol-4-yl)amino)propyl)propanamide]
IC50 (CK2α): 2.98 nM
IC50 (CLK2): 242 nM
IC50 (intracellular CK2α): 134 nM

O=C(CCNCc1ccc(OC(F)(F)F)c(Cl)c1)NCCCNc1cc(-c2ccncc2)cc2[nH]ncc12 [Example 5, 3-((3-Chloro-4-(trifluoromethoxy)benzyl)amino)-N-(3-((6-(pyridin-4-yl)-1H-indazol-4-yl)amino)propyl)propanamide]
IC50 (CK2α): 2.15 nM
IC50 (CLK2): 306 nM
IC50 (intracellular CK2α): 240 nM

O=C(CCNCc1ccc(-c2ccccc2)c(Cl)c1)NCCCNc1cc(-c2cn[nH]n2)cc2[nH]ncc12 [Example 25, N-(3-((6-(2H-1,2,3-triazol-4-yl)-1H-indazol-4-yl)amino)propyl)-3-(((2-chloro-[1,1′-biphenyl]-4-yl)methyl)amino)propanamid]
IC50 (CK2α): 0.44 nM
IC50 (CLK2): 18.2 nM
IC50 (intracellular CK2α): 93.6 nM

N#Cc1nncn1-c1cc(NCCCNC(=O)CCNCc2ccc(OC(F)(F)F)c(Cl)c2)c2cn[nH]c2c1 [Example 177, 3-((3-chloro-4-(trifluoromethoxy)benzyl)amino)-N-(3-((6-(3-cyano-4H-1,2,4-triazol-4-yl)-1H-indazol-4-yl)amino)propyl)propanamide]
IC50 (CK2α): 56.2 nM
IC50 (CLK2): 1250 nM
IC50 (intracellular CK2α): 11700 nM

O=C(O)c1cc(NCCOCCCCNCc2cc3cc(C(F)(F)F)ccc3[nH]2)c2cn[nH]c2c1 [Example 85, 4-((2-(4-(((5-(trifluoromethyl)-1H-indol-2-yl)methyl)amino)butoxy)ethyl)amino)-1H-indazole-6-carboxylic acid]
IC50 (CK2α): 743 nM
IC50 (CLK2): 37100 nM
IC50 (intracellular CK2α): > 50000 nM

N#Cc1cc(CNCCC(=O)NCCCNc2cc(-n3cnnc3)cc3[nH]ncc23)ccc1C1CC1 [Example 45, N-(3-((6-(4H-1,2,4-triazol-4-yl)-1H-indazol-4-yl)amino)propyl)-3-((3-cyano-4-cyclopropylbenzyl)amino)propanamide]
IC50 (CK2α): 0.95 nM
IC50 (CLK2): 123 nM
IC50 (intracellular CK2α): 6380 nM

N#Cc1cc(NCCCNC(=O)CCNCc2ccc(OC(F)(F)F)c(Cl)c2)c2cn[nH]c2c1 [Example 160, 3-((3-chloro-4-(trifluoromethoxy)benzyl)amino)-N-(3-((6-cyano-1H-indazol-4-yl)amino)propyl)propanamide]
IC50 (CK2α): 19.1 nM
IC50 (CLK2): 221 nM
IC50 (intracellular CK2α): 1110 nM

c1cc2[nH]c(CNCCCCOC3CN(c4cc(-c5cnoc5)cc5[nH]ncc45)C3)cc2cc1OC1CCC1 [Example 119, N-((5-cyclobutoxy-1H-indol-2-yl)methyl)-4-((1-(6-(isoxazol-4-yl)-1H-indazol-4-yl)azetidin-3-yl)oxy)butan-1-amine]
IC50 (CK2α): 22.6 nM
IC50 (CLK2): 617 nM
IC50 (intracellular CK2α): 1620 nM

FC(F)(F)Oc1ccc(CNCCCCOC2CN(c3cc(-c4ccnnc4)cc4[nH]ncc34)C2)cc1Cl [Example 107, N-(3-chloro-4-(trifluoromethoxy)benzyl)-4-((1-(6-(pyridazin-4-yl)-1H-indazol-4-yl)azetidin-3-yl)oxy)butan-1-amine]
IC50 (CK2α): 28.1 nM
IC50 (CLK2): 2640 nM
IC50 (intracellular CK2α): 3740 nM

N#CCc1cc(CNCCCCOC2CN(c3cc(-n4cnnc4)cc4[nH]ncc34)C2)cc(C(F)(F)F)c1 [Example 105, 2-(3-(((4-((1-(6-(4H-1,2,4-triazol-4-yl)-1H-indazol-4-yl)azetidin-3-yl)oxy)butyl)amino)methyl)-5-(trifluoromethyl)phenyl)acetonitrile]
IC50 (CK2α): 21.6 nM
IC50 (CLK2): 167 nM
IC50 (intracellular CK2α): 5340 nM

O=C(CCNCc1ccc(OC(F)(F)F)c(Cl)c1)NCCCNc1cc(-c2cnns2)cc2[nH]ncc12 [Example 32, N-(3-((6-(1,2,3-thiadiazol-5-yl)-1H-indazol-4-yl)amino)propyl)-3-((3-chloro-4-(trifluoromethoxy)benzyl)amino)propanamide]
IC50 (CK2α): 0.47 nM
IC50 (CLK2): 75.9 nM
IC50 (intracellular CK2α): 17.7 nM

FC(F)(F)Oc1ccc(CNCCCOCCCOc2cc(-n3cnnc3)cc3[nH]ncc23)cc1Cl [Example 69, 3-(3-((6-(4H-1,2,4-triazol-4-yl)-1H-indazol-4-yl)oxy)propoxy)-N-(3-chloro-4-(trifluoromethoxy)benzyl)propan-1-amine]
IC50 (CK2α): 46.6 nM
IC50 (CLK2): 688 nM
IC50 (intracellular CK2α): 2850 nM

Cc1cc(CC#N)cc(CNCCCCOC2CN(c3cc(-n4cnnc4)cc4[nH]ncc34)C2)c1 [Example 106, 2-(3-(((4-((1-(6-(4H-12,4-triazol-4-yl)-1H-indazol-4-yl)azetidin-3-yl)oxy)butyl)amino)methyl)-5-methylphenyl)acetonitrile]
IC50 (CK2α): 41.7 nM
IC50 (CLK2): 368 nM
IC50 (intracellular CK2α): 26600 nM

FC(F)(F)c1ccc2[nH]c(CNCCCCOC3CN(c4cc(-n5cnnc5)cc5[nH]ncc45)C3)cc2c1 [Example 128, 4-((1-(6-(4H-1,2,4-triazol-4-yl)-1H-indazol-4-yl)azetidin-3-yl)oxy)-N-((5-(trifluoromethyl)-1H-indol-2-yl)methyl)butan-1-amine]
IC50 (CK2α): 3.96 nM
IC50 (CLK2): 187 nM
IC50 (intracellular CK2α): > 50000 nM

O=C(CNCCCCNCc1ccc(OC(F)(F)F)c(Cl)c1)Nc1cc(-n2cnnc2)cc2[nH]ncc12 [Example 17, N-(6-(4H-1,2,4-triazol-4-yl)-1H-indazol-4-yl)-2-((4-((3-chloro-4-(trifluoromethoxy)benzyl)amino)butyl)amino)acetamide]
IC50 (CK2α): 8.26 nM
IC50 (CLK2): 2780 nM
IC50 (intracellular CK2α): 3840 nM

C[C@@H](CCCOCCNc1cc(-c2cnnc(O)c2)cc2[nH]ncc12)NCc1cc(Cc2cnco2)cc(OC(F)(F)F)c1 [Example 195, (S)-5-(4-((2-((4-((3-(oxazol-5-ylmethyl)-5-(trifluoromethoxy)benzyl)amino)pentyl)oxy)ethyl)amino)-1H-indazol-6-yl)pyridazin-3-ol]
IC50 (CK2α): 0.41 nM
IC50 (CLK2): 227 nM
IC50 (intracellular CK2α): 21.4 nM

O=C(CCNCc1ccc(-c2ccccc2)c(Cl)c1)NCCCNc1cc(-c2cccnc2)cc2[nH]ncc12 [Example 26, 3-(((2-chloro-[1,1'-biphenyl]-4-yl)methyl)amino)-N-(3-((6-(pyridin-3-yl)-1H-indazol-4-yl)amino)propyl)propanamide]
IC50 (CK2α): 20.4 nM
IC50 (CLK2): 4460 nM
IC50 (intracellular CK2α): 875 nM
